Measured values from patent EP2975030B1, “DIHYDROPYRIDAZINE-3,5-DIONE DERIVATIVE” (Chugai Seiyaku Kabushiki Kaisha, priority 2013, dated 2014).

System: rat small-intestinal brush border membrane vesicles
Test: Inhibitory effect on 33PO4 uptake into rat small-intestinal brush border membrane vesicles (rapid filtration method)
Format: biochemical, Wistar female rat
Details: 1 µM test compound, 33PO4 uptake into rat small-intestinal BBMVs, 60 seconds
Procedure, shortened: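 Uptake was terminated by ice-cold 110 mM NaCl, 1 mM KH2PO4, 10 mM HEPES (pH 7.5) buffer and immediate suction filtration, then washing. Using rat small-intestinal BBMVs, retained 33PO4 was quantified by liquid scintillation counting as transport activity.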

Row | Compound | Rate of uptake inhibition (%) (1 µM) | Rate of uptake inhibition (%) (1 µM)
1 | CC(C)[C@H]1C(O)=C(C(=O)Nc2ccc(C(F)(F)F)cc2-c2cc(C(F)(F)F)ncn2)C(=O)N(Cc2cccc(F)c2F)N1C [Example 252] | 53% | –
2 | CN1N(Cc2ccc(OCCCOCCCO)c(F)c2F)C(=O)C(C(=O)Nc2ccc(C(F)(F)F)cc2-c2cc(C(F)(F)F)ncn2)=C(O)C12CCCC2 [Example 398] | 34% | –
3 | C[C@]12CCCN1N(Cc1cccc(F)c1F)C(=O)C(C(=O)Nc1ccc(C(F)(F)F)cc1-c1cncc(C#N)c1)=C2O [Example 82] | 100% | –
4 | CC(C)(C)[C@H]1C(O)=C(C(=O)Nc2ccc(Cl)cc2-c2ccc(C(F)(F)F)nc2)C(=O)N(Cc2cccc(F)c2F)N1CC(F)(F)F [Example 247] | 51% | –
5 | CN1N(Cc2ccc(OCCNCCS(=O)(=O)O)c(F)c2F)C(=O)C(C(=O)Nc2ccc(C(F)(F)F)cc2-c2cc(C(F)(F)F)ncn2)=C(O)C12CCCC2 [Example 435, 2-[2-[2,3-Difluoro-4-[[10-hydroxy-6-methyl-8-oxo-9-[[4-(trifluoromethyl)-2-[6-(trifluoromethyl)pyrimidin-4-yl]phenyl]carbamoyl]-6,7-diazaspiro[4.5]dec-9-en-7-yl]methyl]phenoxylethy]amino]ethanesulfonic acid] | – | 11%
6 | CN1N(Cc2ccc(OCCN[C@@H](CC(=O)O)C(=O)O)c(F)c2F)C(=O)C(C(=O)Nc2ccc(C(F)(F)F)cc2-c2cc(C(F)(F)F)ncn2)=C(O)C12CCCC2 [Example 381, (2S)-2-[2-[2,3-Difluoro-4-[[10-hydroxy-6-methyl-8-oxo-9-[[4-(trifluoromethyl)-2-[6-(-trifluoromethyl)pyrimidin-4-yl]phenyl]carbamoyl]-6,7-diazaspiro[4.5]dec-9-en-7-yl]methyl]phenoxy]ethylamino]butanedioate] | 28% | –
7 | C[C@H]1COC[C@H](C)N1CCOc1ccc(CN2C(=O)C(C(=O)Nc3ccc(C(F)(F)F)cc3-c3cc(C(F)(F)F)ncn3)=C(O)C3(CCC3)N2C)c(F)c1F [Example 343] | 68% | –
8 | COc1ccc(OC)c(CN2C(=O)C(C(=O)Nc3ccc(C(F)(F)F)cc3-c3ccc(C(F)(F)F)nc3)=C(O)[C@@]3(C)CCCN23)c1 [Example 176] | 75% | –
9 | Cc1c(Cl)ncnc1-c1cc(C(F)(F)F)ccc1NC(=O)C1=C(O)[C@H](C(C)(C)C)N(C)N(Cc2ccc(OCCN3CCOCC3)c(F)c2F)C1=O [Example 276] | 68% | –
10 | C[C@]12CCCN1N(Cc1cc(F)cc(F)c1)C(=O)C(C(=O)Nc1ccc(C(F)(F)F)cc1-c1ccc(C(F)(F)F)nc1)=C2O [Example 171] | 78% | –
11 | C[C@]12CCCN1N(Cc1cccc(F)c1Cl)C(=O)C(C(=O)Nc1cc(F)c(Br)c(F)c1)=C2O [Example 174] | 87% | –
12 | Cc1cc(NC(=O)C2=C(O)[C@@H]3CCCCN3N(Cc3cccc(F)c3)C2=O)c(C(F)(F)F)o1 [Example 16] | 38% | –
13 | COC(=O)[C@@H]1CCCN1CCOc1ccc(CN2C(=O)C(C(=O)Nc3ccc(C(F)(F)F)cc3-c3cc(C(F)(F)F)ncn3)=C(O)C3(CCC3)N2C)c(F)c1F [Example 355] | 36% | –
14 | CN1N(Cc2ccc(OCCCOC[C@H](O)CO)c(F)c2F)C(=O)C(C(=O)Nc2ccc(C(F)(F)F)cc2-c2cc(C(F)(F)F)ncn2)=C(O)C12CCC2 [Example 389] | 29% | –
15 | CN(CCOCCC(=O)N(C)C[C@H](O)[C@@H](O)[C@H](O)[C@H](O)CO)CCOc1ccc(CN2C(=O)C(C(=O)Nc3ccc(C(F)(F)F)cc3-c3cc(C(F)(F)F)ncn3)=C(O)C3(CCCC3)N2C)c(F)c1F [Example 425] | 5% | –
16 | CN1[C@@H](C(C)(C)C)C(O)=C(C(=O)Nc2cc(F)c(Br)c(F)c2)C(=O)N1Cc1cccc(F)c1F [Example 240] | 72% | –
17 | CN(CCO)CCOc1ccc(CN2C(=O)C(C(=O)Nc3ccc(C(F)(F)F)cc3-c3cc(C(F)(F)F)ncn3)=C(O)C3(CCCC3)N2C)c(F)c1F [Example 373] | 27% | –
18 | C[C@]12CCCN1N(Cc1cccc(F)c1F)C(=O)C(C(=O)Nc1ccc(Br)cc1)=C2O [Example 77] | 80% | –
19 | COC(=O)c1cccc(-c2cc(C(F)(F)F)ccc2NC(=O)C2=C(O)[C@@]3(C)CCCN3N(Cc3cccc(F)c3F)C2=O)c1OC [Example 65] | 98% | –
20 | COCCN(C)CCN(C)c1ccc(CN2C(=O)C(C(=O)Nc3ccc(C(F)(F)F)cc3-c3cc(C(F)(F)F)ncn3)=C(O)C3(CCCC3)N2C)c(F)c1F [Example 442] | 24% | –
21 | COCCOCCOc1ccc(CN2C(=O)C(C(=O)Nc3ccc(C(F)(F)F)cc3-c3cc(C(F)(F)F)ncn3)=C(O)C3(CCC3)N2C)c(F)c1F [Example 401] | 39% | –
22 | C[C@]12CCCN1N(Cc1cccc(F)c1F)C(=O)C(C(=O)Nc1ccc(C(F)(F)F)cc1-c1cnc(Cl)nc1)=C2O [Example 67] | 91% | –

Row | Compound | Rate of uptake inhibition (%) (1 µM) | Rate of uptake inhibition (%) (1 µM)
23 | CC(CN1CCOCC1)Oc1ccc(CN2C(=O)C(C(=O)Nc3ccc(C(F)(F)F)cc3-c3cc(C(F)(F)F)ncn3)=C(O)C3(CCC3)N2C)c(F)c1F (stereo not shown) [Example 408] | 47% | –
24 | CN1N(Cc2ccc(OCCN3CCN(CCO)CC3)c(F)c2F)C(=O)C(C(=O)Nc2ccc(C(F)(F)F)cc2-c2cc(C(F)(F)F)ncn2)=C(O)C12CCCC2 [Example 376] | 33% | –
25 | C[C@]12CCCN1N(Cc1c(F)cc(C#CCCOC[C@H](O)CO)cc1F)C(=O)C(C(=O)Nc1ccc(C(F)(F)F)cc1-c1ccc(C(F)(F)F)nc1)=C2O [Example 145] | 78% | –
26 | C[C@]12CCCN1N(Cc1cc(Cl)ccc1F)C(=O)C(C(=O)Nc1ccc(C(F)(F)F)cc1-c1cc(C(F)(F)F)ncn1)=C2O [Example 211] | 72% | –
27 | C[C@]12CCCN1N(Cc1cccc(F)c1F)C(=O)C(C(=O)Nc1ccc(C(F)(F)F)cc1-c1ncnc(Cl)c1Cl)=C2O [Example 70] | 79% | –
28 | CN1N(Cc2cccc(F)c2F)C(=O)C(C(=O)Nc2ccc(C(F)(F)F)cc2-c2ccc(S(=O)(=O)N(C)C)cc2)=C(O)C1(C)C [Example 308] | 63% | –
29 | CN1N(Cc2ccc(OCCN3CCN(CCCO)CC3)c(F)c2F)C(=O)C(C(=O)Nc2ccc(C(F)(F)F)cc2-c2cc(C(F)(F)F)ncn2)=C(O)C12CCC2 [Example 362] | 17% | –
30 | C[C@]12CCCN1N(Cc1cc(F)ccc1F)C(=O)C(C(=O)Nc1cc(F)c(Br)c(F)c1)=C2O [Example 193] | 82% | –
31 | C[C@]12CCCN1N(Cc1cccc(OC(F)(F)F)c1)C(=O)C(C(=O)Nc1ccc(C(F)(F)F)cc1-c1cc(C(F)(F)F)ncn1)=C2O [Example 189] | 73% | –
32 | C#Cc1ccc(CN2C(=O)C(C(=O)Nc3ccc(C(F)(F)F)cc3-c3cc(C(F)(F)F)ncn3)=C(O)[C@@]3(C)CCCN23)c(F)c1F [Example 126, (4aR)-1-[(4-Ethynyl-2,3-difluorophenyl)methyl]-4-hydroxy-4a-methyl-2-oxo-N-[4-(trifluoromethyl)-2-[6-(trifluoromethyl)pyrimidin-4-yl]phenyl]-6,7-dihydro-5H-pyrrolo[1.2-b]pyridazine-3-carboxamide] | 71% | –
33 | CN1N(Cc2ccc(OCCN3CCN(CCOCCO)CC3)c(F)c2F)C(=O)C(C(=O)Nc2ccc(C(F)(F)F)cc2-c2cc(C(F)(F)F)ncn2)=C(O)C12CCCC2 [Example 378] | 35% | –
34 | CN1N(Cc2ccc(OCCCCOCCCO)c(F)c2F)C(=O)C(C(=O)Nc2ccc(C(F)(F)F)cc2-c2cc(C(F)(F)F)ncn2)=C(O)C12CCCC2 [Example 399] | 42% | –
35 | COc1cc(-c2cc(C(F)(F)F)ccc2NC(=O)C2=C(O)[C@@]3(C)CCCN3N(Cc3cccc(F)c3F)C2=O)cnc1C#N [Example 114, (4aR)-N-[2-(6-Cyano-5-methoxypyridin-3-yl)-4-(trifluoromethyl)phenyl]-1-[(2,3-difluorophenyl)methyl]-4-hydroxy-4a-methyl-2-oxo-6,7-dihydro-5H-pyrrolo[1,2-b]pyridazine-3-carboxamide] | 86% | –
36 | CN1N(Cc2ccc(OCCCCCOCCCO)c(F)c2F)C(=O)C(C(=O)Nc2ccc(C(F)(F)F)cc2-c2cc(C(F)(F)F)ncn2)=C(O)C12CCCC2 [Example 400] | 36% | –
37 | C[C@]12CCCN1N(Cc1cc(F)cc(F)c1)C(=O)C(C(=O)Nc1ccc(C(F)(F)F)cc1-c1cc(C(F)(F)F)ncn1)=C2O [Example 213] | 79% | –
38 | CN1[C@@H](C(C)(C)C)C(O)=C(C(=O)Nc2ccc(C(F)(F)F)cc2-c2ccc(C(F)(F)F)nc2)C(=O)N1Cc1ccc(OCCN2CCOCC2)c(F)c1F [Example 266] | 62% | –
39 | C[C@]12CCCN1N(Cc1ccc(CCCOCCCO)c(F)c1F)C(=O)C(C(=O)Nc1ccc(C(F)(F)F)cc1-c1ccc(C(F)(F)F)nc1)=C2O [Example 141] | 83% | –
40 | C[C@]12CCCN1N(Cc1cccc(F)c1F)C(=O)C(C(=O)Nc1ccc(C(F)(F)F)cc1-c1cnc(Cl)c(C#N)c1)=C2O [Example 68, (4aR)-N-[2-(6-Chloro-5-cyanopyridin-3-yl)-4-(trifluoromethyl)phenyl]-1-[(2,3-difluorophenyl)methyl]-4-hydroxy-4a-methyl-2-oxo-6,7-dihydro-5H-pyrrolo[1,2-b]pyridazine-3-carboxamide] | 84% | –
41 | COc1cccc(-c2cc(C(F)(F)F)ccc2NC(=O)C2=C(O)[C@@]3(C)CCCN3N(Cc3ccc(C#CCCCO)c(F)c3F)C2=O)c1OC [Example 138] | 93% | –
42 | COc1cc(CN2C(=O)C(C(=O)Nc3ccc(C(F)(F)F)cc3-c3ccc(C(F)(F)F)nc3)=C(O)[C@@]3(C)CCCN23)cc(OC)c1 [Example 202] | 75% | –
43 | C[C@]12CCCN1N(Cc1ccc(F)c(F)c1)C(=O)C(C(=O)Nc1ccc(C(F)(F)F)cc1-c1ccc(C(F)(F)F)nc1)=C2O [Example 170] | 73% | –
